Reference: PMC3368506 (Journal of the American Chemical Society, 2012)
Read-outs that look alike come from different tables or passages of the source.

Assays:
Cu^2+–Aβ42 species = Cu^2+–Aβ42 species (Homo sapiens, UniProt P05067); experiment: H2O2 production, HRP/Amplex Red assay; type: biochemical; details: reducing conditions (sodium ascorbate)
Neuro2A (N2A) cells = experiment: Cytotoxicity, Alamar Blue cell viability assay; type: cell-based, Mouse
[1] = 1:1 metal:ligand, 50 μM each, ref [78], cited from earlier work
[2] = pH 7.4; 1:1 metal:ligand, 50 μM each; ref [78]; cited from earlier work

Sequence of Cu^2+–Aβ42 species (P05067 672-713 limits assumed): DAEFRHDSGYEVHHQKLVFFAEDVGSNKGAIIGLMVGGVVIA

Oc1c(I)cc(Cl)c2cccnc12 [CQ, clioquinol]
Reduction of H2O2 production by Cu–Aβ42 species (Cu^2+–Aβ42 species): almost no effect | Cell survival, disaggregation conditions (Neuro2A (N2A) cells; Aβ42 fibrils 20 μM + compound 2 μM + Cu^2+ 20 μM): marked cell toxicity | Cell survival (Neuro2A (N2A) cells; concentrations >2 μM): < 30%

O=C(O)CN(CCN(CC(=O)O)CC(=O)O)CC(=O)O [EDTA, ethylenediaminetetraacetic acid]
Cell survival (Neuro2A (N2A) cells; up to 20 μM concentration): 90–95%

CN(Cc1ccccn1)Cc1ccccn1 [L*, N-methyl-N,N-bis(2-pyridylmethyl)amine]
Reduction of H2O2 production by Cu–Aβ42 species (Cu^2+–Aβ42 species): dramatic reduction

c1cnc2c(c1)ccc1cccnc12 [phen, phenanthroline]
Reduction of H2O2 production by Cu–Aβ42 species (Cu^2+–Aβ42 species): almost no effect

O=C(O)CN(CCN(CC(=O)O)CC(=O)O)CCN(CC(=O)O)CC(=O)O [DTPA, diethylenetriaminepentaacetic acid]
pCu (−log[Cu^2+]free) ([1]; pH 6.6): 9.7 | pCu (−log[Cu^2+]free) ([1]; pH 7.4): 10.7 | pZn (−log[Zn^2+]free) [2]: 9.3
